Assay results published in patent US5079257A, “Indoloquinone compounds” (priority 1986, dated 1992).
≈ marks a conversion by molar mass, not a printed value. Like-named read-outs stand apart in the source and are kept apart here.

What was measured:
[1] = tested on: L1210 cells; assay: L1210 activity (bioliquid assay), cytotoxicity; assay type: cell-based; settings: Mus musculus
In short: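 Suspension culture in RPMI with 15% FCS and 2-mercaptoethanol (60 μmol). Continuous compound exposure for 48 hours at 37° C under 5% CO2 in humidified air. Cell numbers then counted on an electronic microcell counter.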

[2] = tested on: L1210 cells; assay: Lowest active dose (L1210; bioliquid assay); assay type: cell-based; settings: Mus musculus
Text: The indoloquinones II (formula II) have been tested in respect of their cytotoxic activity against L1210 cells and R-1 cells (Rhabdomyosarcoma Cells) in a bioliquid assay at the department of oncology of the Free University of Amsterdam (Table I). In addition to this seven compounds (E.O. 1, E.O. 2, E.O. 4, E.O. 7, E.O. 9, E.O. 16 and E.O. 17) have been tested on L1210 activity in a clonogenic assay at TNO, Rijswijk. Further, the lowest active doses of the compounds E.O. 1, E.O. 2, E.O. 4 and E.O. 9 have been determined at TNO Rijswijk, according to the method described by Lamberts et al. [Oncology, 40, 301 (1983)]. (Table II). Eight indoloquinones (E.O. 1, E.O. 2, E.O. 4, E.O. 4A, E.O. 8, E.O. 9, E.O. 33 and E.O. 35) have been tested in a panel of five human tumour lines (TNO Rijswijk; Table III). From the latter group three indoloquinones (E.O. 1, E.O. 4 and E.O. 9) have been selected for a cytotoxicity study, involving five slowly growing human tumour lines (University of Freiburg; Table IV).
The lowest active doses for the compounds E.O. 1, E.O. 2, E.O. 4 and E.O. 9 were determined according to the method described by Lamberts et al. [Oncology, 40, 301 (1983)]. In this method, L1210 cells were grown in a series of wells in a culture medium and in the presence of the compound to be tested, as in the determination of L1210 activity in a bioliquid assay reported above, but the compound was present in respective wells in a different concentration, the concentrations extending over an appropriate range. After a suitable incubation period, the lowest active dose for the compound in question was determined by comparing the diameter of each of the precipitation spots with that of a control containing only the culture and the cell suspension, a smaller diameter indicating growth inhibition (Table II).

[3] = tested on: A 204 cells; rhabdomyosarcoma; assay: In vitro panel of human tumour lines (TNO): A 204; assay type: cell-based; settings: about 72 hours; also: key: -: no inhibition of cell growth; +: total cell-kill
In short: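 Cells (5×10^4/ml, Dulbecco's medium + 10% FCS) grafted 48 h, then continuously exposed to compound (Hanks'/ethanol, final ethanol <1%) for about 72 h at 37°C, 10% CO2. Crystal violet fixation/staining; inhibiting concentration estimated qualitatively over increasing doses.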

[4] = tested on: MCF7 breast cancer cells; assay: In vitro panel of human tumour lines (TNO): MCF-7; assay type: cell-based; settings: about 72 hours; also: key: -: no inhibition of cell growth; +: total cell-kill
In short: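 Cells in Dulbecco's medium with 10% foetal calf serum were seeded 48 h, then exposed continuously to increasing compound concentrations (final ethanol <1%) for about 72 h at 37° in 10% CO2. Crystal violet staining after fixation; inhibiting concentration estimated qualitatively.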

[5] = tested on: L1210; assay: In vivo L1210 experiments (TNO Rijswijk); parameters: species or system mice
Method: The in vivo L1210 experiments were carried out in male Balb/c X DBA.2 Fl hybrid mice at TNO, Rijswijk.
In these experiments also, the drugs were administered IP as suspensions in carboxymethyl cellulose […] as a single dose at the first day.

[6] = tested on: P 388 tumour cells; assay: In vivo P388 experiments (Brussels); parameters: species or system mice; settings: for MAX T/C: days 1 to 5
Method: These experiments were carried out at the Institute Jules Bordet, Brussels, on CDF, female mice. The mice were inoculated intraperitoneally (IP) with 1×10^6 P 388 tumour cells. After 24 hours, the compounds were administrated as suspensions in "Tween-80" or using saline as vehicle. Six mice were used at each dose of the compound, given on days 1 to 5 and eighteen control mice were injected with saline.

[7] = Half-wave reduction potentials / polarography (University of Utrecht); assay type: physicochemical
In short: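 Polarographic half-wave potentials (E1/2) measured; only the first, quinone, reduction potential is reported.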

[8] = in vivo; parameters: species or system mice; settings: mouse, IP, single dose, suspension in carboxymethyl cellulose (2%)
Method: The acute toxicity experiments were carried out with male C5 Black/Rij X CBA/Rij Fl hybrid mice at TNO, Rijswijk. The drugs were administrated IP as suspensions in carboxymethyl cellulose (2%) as a single dose at the first day.

[9] = L1210, bioliquid assay, duplicate experiment, read-out: LAD 2 (lowest active dose)
[10] = L1210, bioliquid assay, read-out: LAD 1 (lowest active dose)
[11] = L1210, Table I, bioliquid assay, 48 hours, read-out: ID-50 L1210

| Compound | in vitro activity score, A 204 ([3]; 0.01 μg/ml) | in vitro activity score, A 204 ([3]; 0.1 μg/ml) | in vitro activity score, A 204 ([3]; 1.0 μg/ml) | in vitro activity score, A 204 ([3]; 10 μg/ml) | in vitro activity score, MCF-7 ([4]; 0.01 μg/ml) | in vitro activity score, MCF-7 ([4]; 0.1 μg/ml) | in vitro activity score, MCF-7 ([4]; 10 μg/ml) | MAX T/C ([6]; 10 mg/kg) | minimal effective concentration [2, 9] | minimal effective concentration [2, 10] | in vitro activity score, MCF-7 ([4]; 1.0 μg/ml) | half-wave potential E1.2, wave I ([7]; pH = 8 vs Ag/AgCl) | LD50 [8] | IC50 [1, 11] | also measured |
| --- | --- | --- | --- | --- | --- | --- | --- | --- | --- | --- | --- | --- | --- | --- | --- |
| CC(=O)OC/C=C/c1c(COC(C)=O)c2c(n1C)C(=O)C=C(N1CC1)C2=O [E.O. 4, 3-Acetoxymethyl-5-aziridino-1-methyl-2-[1H-indole-4,7-dione]prop-β-en-α-yl acetate] | - | - | + | + | - | - | + | 135% |  |  |  |  |  |  | IC50 ([1]; L1210, 48 h, read-out: ID-50 L1210, Table VIII): 1.6 µg/mL; minimal effective concentration ([2]; L1210, read-out: LAD 1 (lowest active dose)): 0.032 to 0.064 µg/mL; minimal effective concentration ([2]; L1210, read-out: LAD 2 (lowest active dose)): 0.064 µg/mL; % T/C ([5]; 15 mg/kg IP single dose): tox.; % T/C ([5]; 25, 30 mg/kg IP single dose): tox.; response vs control in vivo at 20 mg/kg ([5]; Mus musculus, L1210, ip, read-out: % T/C): 100%; T/C at the optimal dose ([6]; optimal dose): ~130% |
| Cn1c(/C=C/CO)c(CO)c2c1C(=O)C=C(N1CC1)C2=O [E.O. 9, 5-Aziridino-3-hydroxymethyl-1-methyl-2-[1H-indole-4,7-dione]prop-β-en-α-ol] | - | + | + | + | - | + | + |  | 1.02 µg/mL | 0.512 to 1.02 µg/mL | + | -370 mV | 10 mg/kg |  | IC50 ([1]; L1210, 48 h, Table VIII, read-out: ID-50 L1210): 0.46 µg/mL (≈ 1.6 µM); half-wave potential E1.2, wave II ([7]; pH = 8 vs Ag/AgCl): -785 mV; % T/C ([5]; 6, 8, 10 mg/kg IP single dose): tox.; response vs control in vivo at 2 mg/kg ([5]; Mus musculus, L1210, 2 mg/kg IP single dose, read-out: % T/C): 144%; response vs control in vivo at 4 mg/kg ([5]; Mus musculus, L1210, 4 mg/kg IP single dose, read-out: % T/C): 100%; MAX T/C ([6]; 1.5 mg/kg): 106% |
| COC(=O)OC/C=C/c1c(COC(=O)OC)c2c(n1C)C(=O)C=C(OC)C2=O [E.O. 2, Methyl 5-methoxy-3-methoxycarbonyloxymethyl-1-methyl-2-[1H-indole-4,7 dione]prop-β-en-α-yl carbonate] | - | - | - | + | - | - | + | 120% | 1.02 to 2.05 µg/mL | 1.02 to 2.05 µg/mL | - |  | 30 to 100 mg/kg | 0.5 µg/mL (≈ 1.27 µM) | % T/C ([5]; 80 mg/kg IP single dose): tox.; response vs control in vivo at 30 mg/kg ([5]; Mus musculus, L1210, 30 mg/kg IP single dose, read-out: % T/C): 100%; response vs control in vivo at 40 mg/kg ([5]; Mus musculus, L1210, 40 mg/kg IP single dose, read-out: % T/C): 113%; response vs control in vivo at 60 mg/kg ([5]; Mus musculus, L1210, 60 mg/kg IP single dose, read-out: % T/C): 100% |
| COC1=CC(=O)c2c(c(COC(C)=O)c(/C=C/COC(C)=O)n2C)C1=O [E.O. 1, 3-Acetoxymethyl-5-methoxy-1-methyl-2-[1H-indole-4,7-dione]prop-β-en-α-yl acetate] | - | - |  | + | - | - | + |  | 1.02 to 2.05 µg/mL | 1.02 to 2.05 µg/mL | - | -367 mV | 10 to 30 mg/kg | 2.3 µg/mL | direct current polarogram ([7]; DC-polarography): two or more reduction waves; half-wave potential E1.2, wave III ([7]; pH = 8 vs Ag/AgCl): -435 mV; half-wave potential E1.2, wave IV ([7]; pH = 8 vs Ag/AgCl): -775 mV; MAX T/C ([6]; 75 mg/kg): 105% |
